Experiments:
[1] = system: pain threshold (tail-pressure); experiment: Analgesic activity by the tail-pressure method (s.c.); type: in vivo, mice (Std:ddY, male); conditions: mouse, 10 mg/10 ml at 10 ml/kg s.c., 1 hour after administration, mean ± standard error
Experimental: (1) Measurement of Analgesic Activity by the Tail-Pressure Method
Std:ddY Strain male mice (20-25 g) were fasted for one day before the experiment, and were used. After test compounds shown in Table 1 was formed to a salt with tartaric acid, this salt was dissolved in 0.9% physiological saline solutions at the rate of 10 mg/10 ml to give the test compoun d solution . As a control, 0.9% physiological saline solution was used. A tail-pressure apparatus was used in this experiments. Before the administration of test compounds, the pain threshold was measured twice at intervals of 30 minutes and those mice indicating a pain threshold of 50 to 100 mmHg were selected and used. The pain threshold of each mouse was measured at 1 hour after test compound solution mentioned above was administered at 10 ml/kg, s.c. 0.9% Physiological saline solution as a control was administered at 10 ml/kg, s.c . The results were described as an inhibition rate (%) obtained from the following equation. Cutoff level of pressure was defined to be 230 mmHg for the prevention of the damage of mouse tail.
Inhibition rate (%)=(A-B)×100/(C-B)
A: Pain threshold (mmHg) after the administration of test compound solution
B: Pain threshold (mmHg) before the administration of test compound solution
C: Cutoff pressure (230 mmHg)

[2] = system: nociceptive response (licking); experiment: Analgesic activity by the hot-plate method; type: in vivo, mice (Std:ddY, male); conditions: mouse, 52° C. plate, solution 10 mg/10 ml, mean ± standard error
Experimental: Measurement of Analgesic Activity by the Hot-Plate Method
Std:ddY Strain male mice (20-25 g) were fasted for one day before the experiment, and were used. After compounds shown in Table 1 were formed to the tartaric acid salts, these compounds were dissolved in 0.9% physiologocal saline solution at the rate of 10 mg/10 ml, respectively and these solution were used as test compound solution. In a control, 0.9% physiological saline solution was used. Mice were placed on a cyrindric hot plate (diameter: 22 cm, height: 11 cm) made of copper which was fixed in a water bath adjusted to 52° C. so that each animal's four paws came into contact with the plate and the time taken to show the nociceptive response (licking) as an index of pain was measured. Mice showing response latency above 25 seconds were excluded from the experiment. To prevent a burn damage of mouse tissue by heating, cutoff time of 50 seconds was defined. The results were described as an inhibition rate (%) obtained from the following equation.
Inhibition rate (%)=(A-B)×100/(50-B)
A: Response latency (seconds) after the administration of test compound solution
B: Response latency (seconds) before the administration of test compound solution

[3] = cited from earlier work; for analgesic activity, in words: compared to morphine
[4] = system: carrageenin-induced paw edema; experiment: Antiinflammatory activity by the carrageenin-induced hind paw edema; type: in vivo, mice (Std:ddY, male); conditions: mouse, 30 mg/kg p.o., mean ± standard error, n = 6
Experimental: Measurement of Antiinflammatory Activity by the Carrageenin-Induced Hind Paw Edema
Std:ddY Strain male mice (20-25 g) were fasted for one day before the experiment, and were used. After test compounds shown in Table 1 was formed to a salt with tartaric acid, this salt was dissolved in sterilized and distilled water at the rate of 30 mg/10 ml to give the test compound solution. As a control, sterilized and distilled water was used. One hour after the oral administration of test compound solutions, 25 μl of λ-carrageenin suspended in 0.9% physiological saline solution (0.5 mg/25 μl) was injected s.c. under the plantar surface of the right hind paw of a mouse and 25 μl of 0.9% physiological saline solution was injected s.c. under the plantar surface of the left hind paw of the same mouse. Three hours and five hours after carrageenin injection, the […] of the paw was measured with a dial gauge calliper. To the control group, One hour after the oral administration of sterilized and distilled water at the rate of 10 ml/kg, 25 μl of λ-carrageenin (0.5 mg/25 μl) suspended in 0.9% physiological saline solution was injected s.c. under the plantar surface of the right hind paw of a mouse and 25 μl of 0.9% physiological saline solution was injected s.c. under the plantar surface of the left hind paw of the same mouse and the later operation was done in the same manner as in the test compound dosing group mentioned above. The results were described as a swelling rate (%) obtained from the following equation.
Swelling rate (%)=(R-L)×100/L
R: the thickness of the right hind paw
L: the thickness of the left hind paw

yeast-induced fever = experiment: Antipyretic activity on yeast-induced fever in rats; type: in vivo, rats (Wistar, male); conditions: rat, 2 hours after administration
Experimental: Measurement of Antipyretic Activity on Yeast-Induced Fever in Rats
Wistar Strain male rats (150-190 g) were fasted for one day before the experiment, and were used. Compounds of number (1) and (2) in Table 1 were formed to the tartaric acid salt and these salts were dissolved in 0.9% physiological saline solution at the rate of 10 mg/10 ml and these solution were used as test compound solution. In a control, 0.9% physiological saline solution was used. After rat rectal temperature was measured, 1 ml/100 g of body weight of 7.5% yeast/0.9% physiological saline solution was injected s.c. at dorsal position. Then, rat rectal temperature was measured at 4 hour after the injection of yeast and rats showing the increase rectal temperature by 1 degree or more were selected and used. Test compound solution was administered s.c. at 5 hours after the injection of yeast. The rectal temperature was measured 2 hours after the administration of test compound solution. The results were described with the difference between the rectal temperature before and after the administration of test compound solution.

Row | Compound | Inhibition rate (tail-pressure method) [1] [%] | Inhibition rate (hot-plate method) [2] [%] | analgesic/anti-inflammatory activity relative to earlier compounds, in words ([3]; JP, A, H5-17448) | Swelling rate ([4]; 3 hour) [%] | Swelling rate ([4]; 5 hour) [%] | Change of rectal temperature (yeast-induced fever; 1 mg/kg s.c.) [°C] | Change of rectal temperature (yeast-induced fever; 3 mg/kg s.c.) [°C] | Change of rectal temperature (yeast-induced fever; 10 mg/kg s.c.) [°C] | analgesic activity, in words [3] | activity in tail pressure methods and hot plate methods, in words [3]
1 | CCN1CC2(COC)C(O)CC(OC)C34C5CC6(O)C(OC)C(O)C(O)(C5C6OC(=O)c5ccc(Cl)cc5)C(C(OC)C23)C14 (centres unmarked) [14-O-p-chlorobenzoylaconine, reference compound] | 10 ± 4 | 17 ± 7 | exhibits activity superior to that of compounds having a p-chlorobenzoyloxy group bonded to the position 14 carbon atom of the aconitine chemical structure | 57 ± 8 | 63 ± 9 | – | – | – | – | –
2 | COCC12CN(C)C3C4C(OC)C1C3(C(OC)CC2O)C1CC2(O)C(OC)C(OC(C)=O)C4(O)C1C2OC(=O)c1ccc(Cl)cc1 (centres unmarked) [(1), 15-O-acetyl-14-O-p-chlorobenzoylmesaconine] | 48 ± 12 | 52 ± 12 | – | 49 ± 2 | 52 ± 6 | 1.3 ± 0.1 | 0.2 ± 0.1 | 0.2 ± 0.2 | – | –
3 | CCN1CC2(COC)C(OC(C)=O)CC(OC)C34C5CC6(O)C(OC)C(OC(C)=O)C(O)(C5C6OC(=O)c5ccc(Cl)cc5)C(C(OC)C23)C14 (centres unmarked) [(4), 3,15-di-O-acetyl-14-O-p-chlorobenzoylaconine] | 29 ± 8 | 35 ± 9 | – | 50 ± 7 | 55 ± 9 | – | – | – | – | –
4 | COCC12CN(C)C3C4C(OC)C1C3(C(OC)CC2OC(C)=O)C1CC2(O)C(OC)C(OC(C)=O)C4(O)C1C2OC(=O)c1ccc(Cl)cc1 (centres unmarked) [(5), 3,15-di-O-acetyl-14-O-p-chlorobenzoylmesaconine] | 40 ± 10 | 37 ± 10 | – | 43 ± 10 | 58 ± 10 | – | – | – | – | –
5 | COCC12CCC(OC)C34C5CC6(O)C(OC)C(OC(C)=O)C(O)(C5C6OC(=O)c5ccc(Cl)cc5)C(C(OC)C13)C4N(C)C2 (centres unmarked) [(6), 15-O-acetyl-14-O-p-chlorobenzoylhypaconine] | 27 ± 11 | 46 ± 8 | – | 46 ± 5 | 60 ± 5 | – | – | – | – | –
6 | CC(=O)Oc1ccccc1C(=O)O [aspirin] | – | – | – | – | – | – | – | – | weak analgesic activity compared to morphine | no remarkable activity in tail pressure methods and hot plate methods
7 | COc1ccc2c(c1)c(CC(=O)O)c(C)n2C(=O)c1ccc(Cl)cc1 [indomethacin] | – | – | – | – | – | – | – | – | weak analgesic activity compared to morphine | no remarkable activity in tail pressure methods and hot plate methods
8 | de-N-ethyl-N-propyl-15-O-acetyl-8-deoxy-16-epi-14-O-p-chlorobenzoylaconine [(11)] | 25 ± 8 | 34 ± 9 | – | 50 ± 5 | 52 ± 9 | – | – | – | – | –
